Data from patent publication US20080221074A1, “Drug Screen and Treatment Method” (priority 2006, published 2008).
Like-named read-outs stand apart in the source and are kept apart here.

Legend:
NF-κB = test: inhibition of NF-κB activation in NF-κB-bla THP-1 cells after LPS stimulation; assay type: cell-based, human
Text: Inhibition of NF-κB in vitro. […] Activation of NF-κB increases expression of a number of genes that mediate inflammation. This protocol used human THP-1 cells, which are human mononuclear blood cells with a monocyte phenotype. The cell line, referred to as NF-κB-bla THP-1, contained a β-lactamase reporter gene under the control of the NF-kB response element (Invitrogen, CellSensor™, product No. K1176). In this cell line, the β-lactamase reporter gene is stably integrated in the THP-1 cells. This cell line was used to detect agonists or antagonists of the NF-κB signaling pathway. These NF-κB-bla THP-1 cells respond to the presence of tumor necrosis factor alpha (TNFα) or bacterial lipopolysaccharide (LPS) by increased expression of the β-lactamase reporter gene. The level of β-lactamase enzyme activity was measured by fluorescence resonance energy transfer ratiometric detection. TNFα and LPS are both potent inflammation-inducing agents that activate NF-κB in THP1 cells. In this assay, compounds that decrease NF-κB activity, and thus β-lactamase, in the presence of TNFα or LPS are exerting an anti-inflammation activity.
The NF-κB-bla THP-1 cells were maintained by passaging or feeding as needed. […] The cells were plated at 20,000 cells/well in a 384-well Black-wall, clear bottom assay plates (Costar#3712-TC low fluorescence background plates) approximately 24 hours before adding either TNFα at 10 ng/mL or LPS at 0.2 ng/mL to activate NF-κB.
The assays were usually conducted 2-4 times for each compound and the values shown below are averages for each compound.

[1] = tested on: carrageenan-λ induced pleurisy; test: carrageenan-λ induced lung (pleural cavity) inflammation; assay type: in vivo, CD1 male mice; conditions: exudate 4 h after
Text: Treatment of lung inflammation. Three compounds, 3β,16α-dihydroxy-17-oxoandrostane, 3α,16β,17β-trihydroxyandrostane and 3α,16α,17α-trihydroxyandrostane were used to treat inflammation in mice essentially as described (D. Auci et al., Ann. New York Acad. Sci. 1051:730-742 2005). Five to 8 week old CD1 male mice (Charles River, Calco, Italy) were used for the study. The animals were housed in a controlled environment and provided with standard rodent chow and water. Animal care was in compliance with applicable regulations on protection of animals. Mice were allocated into one of the following groups: (1) mice treated with 2% carrageenan-k in saline (carrageenan-λ treated control group), (2) mice treated with 0.1 mg, 0.01 mg or 0.001 mg 3β,16α-dihydroxy-17-oxoandrostane by subcutaneous (s.c.) injection 24 h and 1 h before carrageenan-λ administration, (3) mice treated with 0.1 mg, 0.01 mg or 0.001 mg of 3α,16α,17α-trihydroxyandrostane by s.c. injection 24 and 1 h before carrageenan; (4) mice treated with 0.1 mg, 0.01 mg or 0.001 mg […],16β,17β-trihydroxyandrostane by s.c. injection 24 h and 1 h before carrageenan-λ administration; (5) mice treated with vehicle (0.1% carboxymethylcellulose, 0.9% saline, 2% tween 80, 0.05% phenol) s.c. 24 h and 1 h before carrageenan-λ administration; (6) mice treated with rabbit anti-mouse polyclonal anti-TNF-α antibody (200 μg) given as an intraperitoneal bolus 24 h and 1 h before carrageenan-λ administration (positive control group); and (7) sham-operated mice that were not treated with carrageenan-λ. Each group consisted of 10 mice. All treatments were given in a final volume of 100 μL. Lung (pleural cavity) inflammation was induced as follows. The mice were anaesthetised with isoflurane and a skin incision was made at the level of the left sixth intercostal space. The underlying muscle was dissected and either 0.1 mL saline (control) or 0.1 mL saline containing 2% λ-carrageenan was injected into the pleural cavity. The carrageenan-λ is a potent inducer of inflammation, which is manifested in this protocol by accumulation of fluid and neutrophils in the pleural cavity. The incision was closed with a suture and the animals were allowed to recover.
At 4 h after the injection of carrageenan-λ, the animals were euthanized by exposure to CO2. The chest was carefully opened and the pleural cavity rinsed with 1 mL of saline solution containing heparin (5 U/mL) and indomethacin (10 μg/mL). The exudate and washing solution were removed by aspiration and the total volume measured. Any exudate contaminated with blood was discarded. The amount of exudate was calculated by subtracting the injected 1 mL volume from the total pleural cavity volume that was recovered. The neutrophils in the exudate were suspended in phosphate-buffer saline and counted with an optical microscope in a Burker's chamber after Trypan Blue staining. The results were analysed by one-way ANOVA followed by a Bonferroni post-hoc test for multiple comparisons. A p-value less than 0.05 was considered significant. For statistical analysis each group was compared to the control group of mice that were challenged with carrageenan-k and received no other treatment.
The table below describes the number of neutrophils from the treated animal groups relative to untreated control animals that were exposed to carrageenan-λ, but not treated with anything else (negative control group). The neutrophil number for the negative control group was set at 100% and other groups were compared to this.

[2] = tested on: human MG-63 osteosarcoma cell line; test: reversal of dexamethasone effects in MG-63 osteoblasts; assay type: cell-based; conditions: for reversal of the decrease in osteoprotegerin synthesis: 30 nM dexamethasone, compound concentration stated with each value (17α-ethynyl triol: 1 nM)
EAE = test: PLP-induced EAE, treatment from clinical onset; assay type: in vivo, female SJL mice; conditions: for course of EAE compared to vehicle-treated mice / mean cumulative score, treatment period: 0.1 mg q.d. po from clinical onset; for mean cumulative score, treatment period: day 1 to 30; for mean cumulative score, follow-up period: day 31 to day 54, post treatment
Procedure: The protocol for conducting the EAE animal model was described in (D. Auci et. al., Ann. NY. Acad. Sci. USA, 1051:730-42, 2005). Female SJL mice (6-8 week old, average body weight of 25 g) obtained from Charles-River were kept under standard laboratory conditions (non specific pathogen germ free) with ad libitum food and water and were allowed to adapt one week to their environment before commencing the study. […] EAA was induced with 200 μL of a 1:1 emulsion of 75 μg proteolipid protein (PLP) and 6 mg/mL Mycobacterium tuberculosis H37RA in complete Freund's adjuvant (CFA). The 200 μL injection was divided among four sites that drained into the auxiliary and inguinal lymphnodes. Pertussis toxin was used as a co-adjuvant and was administered i.p. at 200 ng/mouse on day zero and day two post immunization. Groups were treated with 0.1 mg of compound in 100 μL vehicle, or with vehicle alone, q.d. po (oral gavage) starting at clinical onset of disease and continuing through to day 30 post immunization. […] Clinical grading was carried out by an observer unaware of the treatment: 0=no illness, 1=flaccid tail, 2=moderate paraparesis, 3=severe paraparesis, 4=moribund state, 5=death.

[3] = LPS stimulation, 50% of the compound's maximum inhibition, averages, read-out: IC50

Q: How did the IC50 (NF-κB; [3]) turn out when 3α,17α-ethynylandrostane-3α/β,17β-diol was run?
A: 0.2 nM

Q: How did the “number of neutrophils relative to negative control group (set at 100%)” value ([1]; 0.001 mg s.c. 24 h and 1 h before carrageenan-λ) turn out when `C[C@]12CC[C@H]3[C@@H](CCC4C[C@H](O)CC[C@@]43C)[C@@H]1C[C@H](O)[C@@H]2O` (stereo partly drawn) [3α,16β,17β-trihydroxyandrostane] was run?
A: 95%

Q: What about the “number of neutrophils relative to negative control group (set at 100%)” value ([1]; 0.01 mg s.c. 24 h and 1 h before carrageenan-λ) of the same compound?
A: 50%

Q: And the “number of neutrophils relative to negative control group (set at 100%)” value ([1]; 0.1 mg s.c. 24 h and 1 h before carrageenan-λ)?
A: 42%

Q: For `C[C@]12CC[C@H]3[C@@H](CCC4=C[C@H](O)CC[C@@]43C)[C@@H]1CC[C@@H]2O` [3α,17β-dihydroxyandrost-4-ene], which “dexamethasone induced 11β-HSD mRNA” value ([2]; similar protocols) is on record?
A: decrease

Q: What about the “dexamethasone-induced suppression of IL-8 and IL-6” value ([2]; similar protocols) of the same compound?
A: statistically significant reversal

Q: How did the “maximum inhibition of NF-κB” value (NF-κB) turn out when `C[C@]12CC[C@H]3[C@@H](CC=C4C[C@](O)(C(F)(F)C(F)(F)F)CC[C@@]43C)[C@@H]1CC[C@@H]2O` [3α-pentafluoroethylandrost-5-ene-3β,17β-diol] was run?
A: 50%

Q: For `C[C@]12CC[C@H]3[C@@H](CC=C4C[C@](O)(C(F)(F)F)CC[C@@]43C)[C@@H]1CC[C@@H]2O` [3α-trifluoromethylandrost-5-ene-3β,17β-diol], which “course of EAE compared to vehicle-treated mice” value (EAE) is on record?
A: significantly improved course of EAE

Q: What about the “mean cumulative score, treatment period” value (EAE) of the same compound?
A: 11.2±4.8

Q: And the “mean cumulative score, follow-up period” value (EAE)?
A: 10.8±10.3

Q: With `C[C@]12CC[C@H](O)CC1=C[C@H](O)[C@@H]1[C@@H]2CC[C@@]2(C)[C@H]1CC[C@]2(C)O` [3β,7β,17β-trihydroxy-17α-methylandrost-5-ene] as the compound, how does the “reversal of the decrease in osteoprotegerin synthesis” value (“reversal of the decrease” below) [2] read?
A: normal osteoprotegerin levels at 10 nM

Q: `CC12CCC(O)CC1=CC(O)C1C2CCC2(C)C1CCC2(O)C(F)(F)F` (stereo not drawn) [3β,7β,17β-trihydroxy-17α-trifluoromethylandrost-5-ene] was tested. Which “reversal of the decrease” value [2] did it give?
A: normal or basal osteoprotegerin levels at 1 μM compound

Q: Which “reversal of the decrease” value [2] does the source give for `CC12CCC(O)CC1=CC(=O)C1C2CCC2(C)C1CCC2(C)O` (stereo not drawn) [3β,17β-dihydroxy-7-oxo-17α-methylandrost-5-ene] here?
A: increased osteoprotegerin levels at 100 nM

Q: With `C[C@]12CC[C@H](O)C[C@@H]1CC[C@@H]1[C@@H]2CC[C@]2(C)[C@@H](O)C(=NO)C[C@@H]12` [5α-androstane-3β,17β-diol-16-oxime] as the compound, how does the “course of EAE compared to vehicle-treated mice” value (EAE) read?
A: very similar to that observed in the vehicle-treated mice

Q: `C[C@]12CCCCC1=CC[C@@H]1[C@@H]2CC[C@]2(C)C(=O)[C@H](F)C[C@@H]12` [16α-fluoroandrost-5-ene-17-one] was tested. Which IC50 (NF-κB; Homo sapiens, THP-1) did it give?
A: 0.03 nM

Q: How did the IC50 (NF-κB; [3]) turn out when `C[C@]12CC[C@H](O)C[C@@H]1CC[C@@H]1[C@@H]2CC[C@]2(C)C(=O)[C@H](I)C[C@@H]12` [16α-iodoepiandrosterone] was run?
A: 1.9 nM

Q: What does the source list for `C[C@]12CC[C@H](O)C[C@@H]1CC[C@@H]1[C@@H]2CC[C@]2(C)C(=O)[C@@H](Br)C[C@@H]12` [16β-bromoepiandrosterone]?
A: maximum inhibition of NF-κB (NF-κB): 100%; IC50 (NF-κB; [3]): 600 nM

Q: For `C#C[C@]1(O)CC[C@H]2[C@@H]3CCC4=CC(=O)CC[C@]4(C)[C@H]3CC[C@@]21C` [17α-ethynylandrost-4-ene-3-one-17β-ol], which “maximum inhibition of NF-κB” value (NF-κB) is on record?
A: 80%

Q: How did the “course of EAE compared to vehicle-treated mice” value (EAE) turn out when `C[C@]12CC[C@H](O)CC1=CC[C@@H]1[C@@H]2CC[C@@]2(C)[C@H]1CC[C@@]2(O)C(F)(F)F` [17α-trifluoromethylandrost-5-ene-3β,17β-diol] was run?
A: significantly improved course of EAE

Q: Which “mean cumulative score, treatment period” value (EAE) does the source give for `C#C[C@@]1(O)CC[C@H]2[C@@H]3[C@@H](O)C=C4C[C@@H](O)CC[C@]4(C)[C@H]3CC[C@@]21C` [17β-ethynylandrost-5-ene-3β,7β,17α-triol] here?
A: 14.9±17.6

Q: And the “mean cumulative score, follow-up period” value (EAE)?
A: 18.4±20.6

Q: What about the EAE incidence (EAE; end of the follow-up period) of the same compound?
A: 85.7%

Q: What about the EAE incidence (EAE; end of the treatment period) of the same compound?
A: 57.1%

Q: How did the “course of EAE compared to vehicle-treated mice” value (EAE) turn out when `Cc1cc(C)c(/C=C2\C(=O)Nc3ccccc32)[nH]1` [SU5416, Z-3-[(2,4-dimethylpyrrol-5-yl)methylidenyl]-2-indolinone, reference compound] was run?
A: very similar to that observed in the vehicle-treated mice

Q: How did the “reversal of the decrease” value [2] turn out when `C[C@]12CC[C@H]3[C@@H]([C@H](O)C=C4C[C@@H](O)CC[C@@]43C)[C@@H]1C[C@@H](O)[C@@H]2O` [androst-5-ene-3β,7α,16α,17β-tetrol] was run?
A: near normal osteoprotegerin levels at 10 nM

Q: With `C[C@]12CC[C@H]3[C@@H](C(=NO)C=C4C[C@@H](O)CC[C@@]43C)[C@@H]1CC[C@@H]2O` [androst-5-ene-3β,17β-diol-7-oxime] as the compound, how does the “reversal of the decrease” value [2] read?
A: partially reversed the decrease in osteoprotegerin
